# Patent US10072017B2, “Compounds and methods for the treatment of cystic fibrosis” (Flatley Discovery Lab, LLC, priority 2015, dated 2018)
# Biological target: T1, CFTR (Homo sapiens, UniProt P13569, DEL508-508)
# T1 construct: Primary CF airway epithelial cells were obtained from the UNC Cystic Fibrosis Tissue Procurement and Cell Culture Core; host or cells: primary CF airway epithelial cells
# Experiment: Equivalent current assay in Primary CF airway epithelial cells (NAUC)
# Type: cell-based
# Conditions: 24 h, normalized to VX809 (3 μM) positive control; for Nauc @ 3 μM: 3 μM test compound; for Nauc @ 10 μM: 10 μM test compound
# In short: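 Primary CF airway epithelia differentiated ≥4 weeks at air-liquid interface, treated basolaterally 24 h at 37 °C with test compounds in combination with VX809, 0.1% DMSO vehicle. Equivalent current recorded after 5 μM benzamil, 10 μM forskolin plus 1 μM VX770, then CFTR-172/bumetanide 20 μM; vehicle-subtracted AUC normalized to 3 μM VX809 (NAUC), median of n≥4, sigmoid fit for EC50.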
# T1 sequence (P13569 with tags, fused parts or gaps DEL508-508): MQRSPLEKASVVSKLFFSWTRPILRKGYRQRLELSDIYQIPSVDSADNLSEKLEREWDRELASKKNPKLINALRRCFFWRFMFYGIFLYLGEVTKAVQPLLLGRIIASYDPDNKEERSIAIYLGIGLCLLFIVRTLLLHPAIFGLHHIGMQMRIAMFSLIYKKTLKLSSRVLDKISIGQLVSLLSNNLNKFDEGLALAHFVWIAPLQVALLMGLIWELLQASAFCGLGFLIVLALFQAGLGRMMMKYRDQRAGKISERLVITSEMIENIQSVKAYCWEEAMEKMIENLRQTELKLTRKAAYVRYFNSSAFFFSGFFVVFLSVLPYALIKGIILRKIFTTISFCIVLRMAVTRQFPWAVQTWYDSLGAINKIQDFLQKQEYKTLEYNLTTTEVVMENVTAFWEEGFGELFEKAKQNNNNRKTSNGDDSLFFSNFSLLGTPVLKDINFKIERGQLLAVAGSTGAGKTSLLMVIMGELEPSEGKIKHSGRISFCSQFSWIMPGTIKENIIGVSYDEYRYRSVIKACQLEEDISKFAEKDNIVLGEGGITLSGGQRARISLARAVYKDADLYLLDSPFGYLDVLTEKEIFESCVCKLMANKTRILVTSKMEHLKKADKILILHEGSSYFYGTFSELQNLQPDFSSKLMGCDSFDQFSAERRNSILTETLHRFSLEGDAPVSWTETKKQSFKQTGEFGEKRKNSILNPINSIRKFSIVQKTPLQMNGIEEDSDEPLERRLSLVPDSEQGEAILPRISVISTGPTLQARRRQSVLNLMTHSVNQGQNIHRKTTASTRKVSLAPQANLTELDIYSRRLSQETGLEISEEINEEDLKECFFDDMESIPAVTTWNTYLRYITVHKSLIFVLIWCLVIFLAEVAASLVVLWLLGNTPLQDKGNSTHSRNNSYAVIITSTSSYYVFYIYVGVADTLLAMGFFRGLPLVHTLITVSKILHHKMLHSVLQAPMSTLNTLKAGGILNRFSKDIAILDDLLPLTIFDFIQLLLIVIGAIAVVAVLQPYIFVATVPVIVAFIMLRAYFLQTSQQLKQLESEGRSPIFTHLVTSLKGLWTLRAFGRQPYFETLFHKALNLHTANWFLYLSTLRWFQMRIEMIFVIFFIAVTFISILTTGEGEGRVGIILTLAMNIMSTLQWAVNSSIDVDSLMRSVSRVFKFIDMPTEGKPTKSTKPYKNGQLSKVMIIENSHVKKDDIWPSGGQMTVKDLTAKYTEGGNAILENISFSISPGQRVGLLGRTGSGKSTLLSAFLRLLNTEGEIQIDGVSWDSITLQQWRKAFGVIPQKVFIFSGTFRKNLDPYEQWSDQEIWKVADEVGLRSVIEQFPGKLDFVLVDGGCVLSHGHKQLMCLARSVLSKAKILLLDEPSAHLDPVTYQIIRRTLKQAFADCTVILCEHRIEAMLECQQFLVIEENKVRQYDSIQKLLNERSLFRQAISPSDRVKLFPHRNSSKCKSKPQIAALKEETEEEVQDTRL
SMILES,Nauc @ 3 μM,Nauc @ 10 μM
O=C1C2C3CCCN3C3(C(=O)Nc4c(Cl)cc(Cl)cc43)C2C(=O)N1c1cncc(Cl)c1 (centres unmarked) [Example 20],+ (NAUC “+” refers to an observed NAUC <140% of positive control),++ (NAUC “++” refers to an observed NAUC 170-140% of positive control)
O=C1C2C3CCCN3C3(C(=O)Nc4c(Cl)cc(Cl)cc43)C2C(=O)N1c1cc(F)cc(F)c1 (centres unmarked) [Example 21],++ (NAUC “++” refers to an observed NAUC 170-140% of positive control),++ (NAUC “++” refers to an observed NAUC 170-140% of positive control)
O=C1C2C3c4ccccc4CN3C3(C(=O)Nc4c(Cl)cc(Cl)cc43)C2C(=O)N1c1cc(Cl)cc(Cl)c1 (centres unmarked) [Example 22],+++ (NAUC “+++” refers to an observed NAUC >170% of positive control),+++ (NAUC “+++” refers to an observed NAUC >170% of positive control)
O=C1C2C3CCCN3C3(C(=O)Nc4c(Cl)cc(Cl)cc43)C2C(=O)N1c1cccc2c1OC(F)(F)O2 (centres unmarked) [Example 23],++ (NAUC “++” refers to an observed NAUC 170-140% of positive control),+ (NAUC “+” refers to an observed NAUC <140% of positive control)
O=C1C2C3CCCN3C3(C(=O)Nc4c(Cl)cc(Cl)cc43)C2C(=O)N1c1cc(C(F)(F)F)cc(C(F)(F)F)c1 (centres unmarked) [Example 25],+++ (NAUC “+++” refers to an observed NAUC >170% of positive control),+++ (NAUC “+++” refers to an observed NAUC >170% of positive control)
O=C1C2C3CCCN3C3(C(=O)Nc4c(Cl)cc(Cl)cc43)C2C(=O)N1c1cc(C(F)(F)F)cc(C(F)(F)F)c1 (centres unmarked) [Example 26],+ (NAUC “+” refers to an observed NAUC <140% of positive control),+++ (NAUC “+++” refers to an observed NAUC >170% of positive control)
O=C1C2C3CCCN3C3(C(=O)Nc4c(Cl)cc(Cl)cc43)C2C(=O)N1c1cc(Br)cc(Br)c1 (centres unmarked) [Example 27],++ (NAUC “++” refers to an observed NAUC 170-140% of positive control),++ (NAUC “++” refers to an observed NAUC 170-140% of positive control)
O=C1C2C3CCCN3C3(C(=O)Nc4c(Cl)cc(Cl)cc43)C2C(=O)N1c1cc(F)cc(Cl)c1 (centres unmarked) [Example 28],++ (NAUC “++” refers to an observed NAUC 170-140% of positive control),+++ (NAUC “+++” refers to an observed NAUC >170% of positive control)
O=C1C2C3CCCN3C3(C(=O)Nc4ccc(C(F)(F)F)cc43)C2C(=O)N1c1cc(Cl)cc(Cl)c1 (centres unmarked) [Example 30],++ (NAUC “++” refers to an observed NAUC 170-140% of positive control),+++ (NAUC “+++” refers to an observed NAUC >170% of positive control)
N#Cc1cc(Cl)cc(N2C(=O)C3C4CCCN4C4(C(=O)Nc5c(Cl)cc(Cl)cc54)C3C2=O)c1 (centres unmarked) [Example 31],+ (NAUC “+” refers to an observed NAUC <140% of positive control),+++ (NAUC “+++” refers to an observed NAUC >170% of positive control)
O=C1C2CN(C3CCCC3)C3(C(=O)Nc4c(Cl)cc(Cl)cc43)C2C(=O)N1c1cc(Cl)cc(Cl)c1 (centres unmarked) [Example 32],++ (NAUC “++” refers to an observed NAUC 170-140% of positive control),+++ (NAUC “+++” refers to an observed NAUC >170% of positive control)
O=C1C2C3CCCN3C3(C(=O)Nc4c(Cl)cc(Cl)cc43)C2C(=O)N1c1cc(Cl)nc(Cl)c1 (centres unmarked) [Example 33],++ (NAUC “++” refers to an observed NAUC 170-140% of positive control),+++ (NAUC “+++” refers to an observed NAUC >170% of positive control)
O=C1C2C3CCCN3C3(C(=O)Nc4c(Br)cc(Br)cc43)C2C(=O)N1c1cc(Cl)cc(Cl)c1 (centres unmarked) [Example 34],+++ (NAUC “+++” refers to an observed NAUC >170% of positive control),+++ (NAUC “+++” refers to an observed NAUC >170% of positive control)
O=C1C2C3CCCN3C3(C(=O)Nc4c(Cl)cc(Cl)cc43)C2C(=O)N1c1cc(Cl)cc(Br)c1 (centres unmarked) [Example 35],+ (NAUC “+” refers to an observed NAUC <140% of positive control),+++ (NAUC “+++” refers to an observed NAUC >170% of positive control)
O=C1C2C3CCCN3C3(C(=O)Nc4c(Cl)cc(F)cc43)C2C(=O)N1c1cc(F)cc(Cl)c1 (centres unmarked) [Example 36],+ (NAUC “+” refers to an observed NAUC <140% of positive control),+++ (NAUC “+++” refers to an observed NAUC >170% of positive control)
O=C1C2C3CCCN3C3(C(=O)Nc4c(F)cc(Cl)cc43)C2C(=O)N1c1cc(F)cc(Cl)c1 (centres unmarked) [Example 37],+ (NAUC “+” refers to an observed NAUC <140% of positive control),++ (NAUC “++” refers to an observed NAUC 170-140% of positive control)

SMILES,Nauc @ 3 μM,Nauc @ 10 μM
CC12C(=O)N(c3cc(Cl)cc(Cl)c3)C(=O)C1(C)C1(C(=O)Nc3c(Cl)cc(Cl)cc31)N1CCCC12 (centres unmarked) [Example 39],+ (NAUC “+” refers to an observed NAUC <140% of positive control),++ (NAUC “++” refers to an observed NAUC 170-140% of positive control)
O=C1C2C3C[C@H](O)CN3C3(C(=O)Nc4c(Br)cc(Br)cc43)C2C(=O)N1c1cc(Cl)cc(Cl)c1 (some centres unmarked) [Example 40],+++ (NAUC “+++” refers to an observed NAUC >170% of positive control),+++ (NAUC “+++” refers to an observed NAUC >170% of positive control)
O=C1C2C3C[C@H](O)CN3C3(C(=O)Nc4c(Cl)cc(Cl)cc43)C2C(=O)N1c1cc(Cl)cc(Br)c1 (some centres unmarked) [Example 41],++ (NAUC “++” refers to an observed NAUC 170-140% of positive control),+++ (NAUC “+++” refers to an observed NAUC >170% of positive control)
O=C1C2C3C[C@H](O)CN3C3(C(=O)Nc4ccc(C(F)(F)F)cc43)C2C(=O)N1c1cc(Cl)cc(Cl)c1 (some centres unmarked) [Example 42],++ (NAUC “++” refers to an observed NAUC 170-140% of positive control),++ (NAUC “++” refers to an observed NAUC 170-140% of positive control)
O=C1C2C3C[C@H](O)CN3C3(C(=O)Nc4c(Cl)cc(Cl)cc43)C2C(=O)N1c1cc(C(F)(F)F)cc(C(F)(F)F)c1 (some centres unmarked) [Example 43],++ (NAUC “++” refers to an observed NAUC 170-140% of positive control),+++ (NAUC “+++” refers to an observed NAUC >170% of positive control)
CC12C(=O)N(c3cc(Cl)cc(Cl)c3)C(=O)C1C1(C(=O)Nc3c(Cl)cc(Cl)cc31)N1CCCC12 (centres unmarked) [Example 44],++ (NAUC “++” refers to an observed NAUC 170-140% of positive control),+ (NAUC “+” refers to an observed NAUC <140% of positive control)
O=C1C2C3C[C@H](O)CN3C3(C(=O)Nc4c(Cl)cc(Cl)cc43)C2C(=O)N1c1cc(Br)cc(Br)c1 (some centres unmarked) [Example 45],+ (NAUC “+” refers to an observed NAUC <140% of positive control),+++ (NAUC “+++” refers to an observed NAUC >170% of positive control)
Cc1ccc2c(c1)C1(C(=O)N2)C2C(=O)N(c3cc(Cl)cc(Cl)c3)C(=O)C2C2CCCN21 (centres unmarked) [Example 47],++ (NAUC “++” refers to an observed NAUC 170-140% of positive control),++ (NAUC “++” refers to an observed NAUC 170-140% of positive control)
O=C1C2C3CCCN3C3(C(=O)Nc4c(Cl)cc(Cl)cc43)C2C(=O)N1CCCBr (centres unmarked) [Example 48],++ (NAUC “++” refers to an observed NAUC 170-140% of positive control),+ (NAUC “+” refers to an observed NAUC <140% of positive control)
O=C1C2C3C[C@H](F)CN3C3(C(=O)Nc4c(Cl)cc(Cl)cc43)C2C(=O)N1c1cc(Cl)cc(Cl)c1 (some centres unmarked) [Example 49],++ (NAUC “++” refers to an observed NAUC 170-140% of positive control),+++ (NAUC “+++” refers to an observed NAUC >170% of positive control)
O=C1C2C3CCCN3C3(C(=O)Nc4c(Cl)cc(Cl)cc43)C2C(=O)N1c1cc(Cl)cc(Cl)n1 (centres unmarked) [Example 52],++ (NAUC “++” refers to an observed NAUC 170-140% of positive control),+++ (NAUC “+++” refers to an observed NAUC >170% of positive control)
O=C1C2C3CC(F)(F)CN3C3(C(=O)Nc4c(Cl)cc(Cl)cc43)C2C(=O)N1c1cc(Cl)cc(Cl)c1 (centres unmarked) [Example 53],++ (NAUC “++” refers to an observed NAUC 170-140% of positive control),++ (NAUC “++” refers to an observed NAUC 170-140% of positive control)
C=C1CC2C3C(=O)N(c4cc(Cl)cc(Cl)c4)C(=O)C3C3(C(=O)Nc4c(Cl)cc(Cl)cc43)N2C1 (centres unmarked) [Example 55],+ (NAUC “+” refers to an observed NAUC <140% of positive control),+++ (NAUC “+++” refers to an observed NAUC >170% of positive control)
O=C1C2C3C[C@H](Cl)CN3C3(C(=O)Nc4c(Cl)cc(Cl)cc43)C2C(=O)N1c1cc(Cl)cc(Cl)c1 (some centres unmarked) [Example 57],+++ (NAUC “+++” refers to an observed NAUC >170% of positive control),+++ (NAUC “+++” refers to an observed NAUC >170% of positive control)
O=C1C2C3C[C@H](O)CN3C3(C(=O)Nc4c(Cl)cc(Cl)cc43)C2C(=O)N1c1cc(Cl)cc(Cl)n1 (some centres unmarked) [Example 59],+ (NAUC “+” refers to an observed NAUC <140% of positive control),+++ (NAUC “+++” refers to an observed NAUC >170% of positive control)
